Experimental data from patent US20140080706A1, “METHOD OF PREPARING AN AQUEOUS TANK MIX COMPRISING A BASE” (BASF SE, priority 2011, published 2014).

Experiments:
[1] = Volatility: loss of dicamba from tank mix on petri dish; assay type: physicochemical; conditions: 70° C., 24 h
Experimental: The volatility was determined by analyzing the loss of material by HLPL at 70° C. after 24 h at atmospheric pressure. A sample of the aqueous tank mix (300 l/ha) was placed on the petri dish with a defined area (corresponding to a desired field application rate, such as 500 g/ha pesticide).
The application rate was 500 g/ha dicamba (free acid), 1000 g/ha potassium glyphosate, 300 g/ha Genamin® T050 (“Ad2”), 300 g/ha Preference® (“Ad3”) and optionally 250, 500 or 1000 g/ha K2CO3. Deionised water (hardness <1° dH) was used to prepare the samples. Dicamba BAPMA refers to the bis(3-aminopropyl)methylamine salt of dicamba.

pH of tank mix = assay type: physicochemical
Experimental: According to the invention, an aqueous tank mix which has a tank mix acidity of at least pH 5.0 was prepared. Preferably, the tank mix acidity corresponds to a pH of at least 6.0, better of at least 7.0, more preferably of at least 7.5, especially preferred of at least 8.0 and in particular of at least 8.5. The tank mix acidity may correspond to a pH of up to 13.0, preferably of up to 11.0 and in particular of up to 9.0. The tank mix acidity is usually determined as pH value at 20° C. without dilution of the tank mix.

[2] = system: Soya (glycine max) Variant Deltapine; assay: Biological evaluation of low phytotoxicity on glyphosate-resistant soya; assay type: in vivo; conditions: glyphosate tank mixes
Experimental: For the greenhouse tests, maize (cultivar Amadeo) and Chenopodium album was sown or potted in loamy sandy soil to a depth of 1-2 cm. When the plants had reached a growth height of 10 to 25 cm (around 10 to 21 days after sowing), the spray mixtures were applied to the plants in a spraying cabin.
The temperatures in the experimental period, which lasted for 3 to 4 weeks, were between 18-35° C. During this time, the experimental plants received optimum watering, with nutrients being supplied via the water used for watering.
The herbicidal activity was evaluated by awarding scores to the treated plants in comparison to the untreated control plants (Table 1 and 2). The evaluation scale ranges from 0% to 100% activity. 100% activity means the complete death at least of those parts of the plant that are above ground. Conversely, 0% activity means that there were no differences between treated and untreated plants.
The biological evaluation was made as described in Example 6. The tank mixes were applied at a application rate of 375 l/ha (125 or 250 g of glyphosate free acid/ha and 300 g of adjuvant/ha). The adjuvant Ad1 is an aqeuous solution of 200 g/l Genamin® T150 (a tallow fatty amine ethoxylate with 15 EO). The adjuvant Ad2 is Genamin® T050 (a tallow fatty amine ethoxylate with 5 EO).
Soya (glycine max) Variant Deltapine was genetically engineered to resist glyphosate.

[3] = typical value; cited from earlier work

CN(CCCN)CCCN.COc1c(Cl)ccc(Cl)c1C(=O)O [Dicamba BAPMA, bis(3-aminopropyl)methylamine salt of dicamba]
Loss of dicamba, Loss (wt %) ([1]; 500 g/ha dicamba, 1000 g/ha potassium glyphosate, 300 g/ha Ad2, 300 g/ha Ad3, deionised water): <1 wt %
pH of tank mix (pH of tank mix; Table 6 tank mixes, deionised water (hardness <1° dH)): 6.3

COc1c(Cl)ccc(Cl)c1C(=O)O [Dicamba free acid, dicamba]
Loss of dicamba, Loss (wt %) ([1]; atmospheric pressure, application rate 500 g/ha dicamba): 80 wt %
pH of tank mix (pH of tank mix; Table 5 tank mixes, 500 g/ha dicamba, 300 l/ha): 3.0

O=C([O-])[O-].[K+].[K+] [Example K2CO3, K2CO3]
phytotoxity effect on plants of addition of K2CO3 [2]: no phytotoxity effect

O=C(O)CNCP(=O)(O)O [glyphosate]
pKa for the amine [3]: 11.0
pKa for the carboxylic acid [3]: 2.3
pKa for the first phosphonic acid [3]: 0.8
pKa for the second phosphonic acid [3]: 6.0
